According to patent US10487113B2, “Peptide having activity to improve skin condition and use thereof” (CAREGEN CO., LTD., priority 2014, dated 2019):

Columns and labels:
[1] = system: Human primary dermal fibroblast cells; test: Human primary dermal fibroblast cell proliferation, SRB assay; type: cell-based; conditions: 1 ng/ml to 1 ug/ml, 72 hours, SRB assay OD 590 nm
Experimental: Human primary dermal fibroblast cells were treated with CG-Renuin (peptide of SEQ ID NO: 1) and CG-Noverin (peptide of SEQ ID NO: 2) at different concentrations (1 ng/ml to 1 ug/ml), and the cells were incubated for 72 hours in a cell incubator. Then, the cell proliferation change by the peptide treatment was analyzed through SRB assay (OD 590 nm).

NIH3T3 cells = test: Western blotting of pERK and p38 in UVA-irradiated cells; type: cell-based; conditions: 1-10 ug/ml, 30 minutes, then UVA (8 J), 24 hours
Experimental: NIH3T3 cells ([…]) were seeded in a 6-well plate at a cell density of 2×10^5 cells/well, followed by incubation overnight, and then the cells were treated with CG-Renuin or CG-Noverin peptides at different concentrations (1-10 ug/ml), followed by incubation at 37 °C for 30 minutes. Then, the cells were irradiated with UVA (8 J), followed by incubation for 24 hours. The lysates were obtained by the treatment with the cell lysis buffer, followed by protein quantification. For the confirmation of the expression of cellular activating factors, western blotting was conducted using the anti-pERK (Santa Cruz Biotechnology, USA) and p38 (Santa Cruz Biotechnology, USA) antibodies.

MMP2 [2] = target: T1, MMP2 (Homo sapiens, UniProt P08253); test: rhMMP2 inhibition by gelatin zymography; type: biochemical; conditions: rhMMP2 mixed with peptide 0.1 ug/ml and 1 ug/ml, room temperature, 1 hour
T1 sequence (P08253 110-660): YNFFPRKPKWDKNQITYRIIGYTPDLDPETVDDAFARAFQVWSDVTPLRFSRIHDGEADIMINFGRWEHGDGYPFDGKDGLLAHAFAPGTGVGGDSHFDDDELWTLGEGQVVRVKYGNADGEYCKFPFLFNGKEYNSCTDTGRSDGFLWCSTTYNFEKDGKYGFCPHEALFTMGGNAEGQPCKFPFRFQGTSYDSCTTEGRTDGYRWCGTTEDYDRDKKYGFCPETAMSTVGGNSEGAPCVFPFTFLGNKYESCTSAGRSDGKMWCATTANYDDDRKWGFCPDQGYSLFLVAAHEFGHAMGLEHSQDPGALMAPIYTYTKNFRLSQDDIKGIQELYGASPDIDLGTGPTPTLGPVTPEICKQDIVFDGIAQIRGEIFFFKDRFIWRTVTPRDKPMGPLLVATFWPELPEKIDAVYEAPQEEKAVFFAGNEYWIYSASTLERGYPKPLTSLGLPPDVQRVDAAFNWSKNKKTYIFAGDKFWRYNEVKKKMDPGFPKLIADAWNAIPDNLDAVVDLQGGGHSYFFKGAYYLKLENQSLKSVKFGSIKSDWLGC
Experimental: (§1) After rhMMP2 was mixed with the peptides at different concentrations (0.1 ug/ml and 1 ug/ml), the incubation was conducted at room temperature for 1 hour. Then, in order to investigate the expression of rhMMP2 through gelatin zymography, protein electrophoresis (SDS-PAGE) was conducted using gelatin (2 mg/ml) as a substrate. After the electrophoresis, the gel was immersed in 2.5% Triton X-100 for 30 minutes, and then incubated in a buffer containing 50 mM Tris-HCl, 0.2 M NaCl, 5 mM CaCl2), and 1% Triton X-100 at 37 °C for 24 hours. After the incubation, the gel was stained with Coo-massie Brilliant Blue R250 (Sigma), and de-stained with a solution containing 5% methanol, 7.5% acetic acid, and distilled water. In addition, the bands formed by gelatin hydrolysis were observed.

MMP2 [3] = target: T2, MMP2 (Mus musculus, UniProt P33434); test: MMP2 activity in TNF-α-induced fibroblast cells (NIH3T3), gelatin zymography; type: cell-based; conditions: NIH3T3, MMP2 induced by TNF-α; 10, 100, 1000 ng/ml, 24 hours
T2 construct: endogenous in cells; host or cells: NIH3T3
Experimental: as §1, with “Fibroblast cells (NIH3T3) were seeded in a 24-well plate at a cell density of 3×10^4 cells/well. The next day, the cells were incubated in serum-less medium for 24 hours, and the expression and activation of MMP2 were induced by TNF-α. The cells were treated” for “After rhMMP2 was mixed”, “CG-Renuin or CG-Noverin” for “the peptides”, “(10 ng/ml, 100 ng/ml, 1000 ng/ml), followed by incubation for 24 hours. The supernatant obtained from centrifugation at 14,000×g for 10 minutes was incubated,” for “(0.1 ug/ml”, “then,” for “1 ug/ml), the incubation was conducted at room temperature for 1 hour. Then,”, “MMP2” for “rhMMP2”

HaCaT keratinocytes = test: Melanosome transfer: phagocytosis assay with fluorescent bioparticles; type: cell-based; conditions: trypsin 1 μg/ml induction, peptide 1 μg/ml, 48 hours; trypsin treatment group considered 100%
Experimental: In order to observe melanosome transfer, phagocytosis assay was conducted using HaCaT keratinocytes. Bioparticles with a fluorescence substance attached thereto were used as a substance for phagocytosis. The cells were seeded in a 96-well tissue culture plate at 3×10^3 cells/well, incubated for 24 hours, and then incubated in a serum-free medium for 6 hours. Thereafter, for the induction of phagocytosis, the cells were treated with 1 μg/ml of trypsin, and then the cells were treated with 1 μg/ml of peptides for 48 hours. As a result, it was confirmed through a fluorescent microscope that the bioparticles were phagocytized into keratocytes. From the observation when the data with respect to a phagocytosis induction group, that is, a trypsin treatment group, were considered to be 100%, it was verified that phagocytosis was inhibited in the CG-Noverin treatment group and the CG-Renuin treatment group.

MMP2 [4] = target: T1, MMP2; test: Inhibition of MMP2-induced collagen degradation in human dermal fibroblast (HDF) cells, pro-collagen type I kit; type: cell-based; design: purchased SIGMA/USA; host or cells: added to human dermal fibroblast (HDF) cells; conditions: MMP2 20 ng/ml co-treatment, 6 hours, or after IGF-1 100 ng/ml, 4 hours, pro-collagen type I in supernatant
Experimental: Human dermal fibroblast (HDF) cells (3×10^4) were seeded in a 24-well plate. The next day, the cells were incubated in 5% serum medium for 42 hours, treated with MMP2 (20 ng/ml, SIGMA/USA) and CG-Noverin or CG-Renuin, respectively, and incubated for 6 hours. The supernatant obtained from centrifugation at 14,000×g for 10 minutes was analyzed using the pro-collagen type I kit (RnD system/USA).
Human dermal fibroblast (HDF) cells (3×10^4) were seeded in a 24-well plate, and then the next day, the medium was exchanged with a 5% serum medium. The cells were treated with IGF-1 (100 ng/ml, Sigma/USA), followed by incubation for 44 hours, and then the cells were treated with MMP2 (20 ng/ml) and CG-Noverin or CG-Renuin, respectively, followed by incubation for 4 hours. The supernatant obtained from centrifugation at 14,000×g for 10 minutes was analyzed using the pro-collagen type I kit.

T2 sequence (P33434 110-662): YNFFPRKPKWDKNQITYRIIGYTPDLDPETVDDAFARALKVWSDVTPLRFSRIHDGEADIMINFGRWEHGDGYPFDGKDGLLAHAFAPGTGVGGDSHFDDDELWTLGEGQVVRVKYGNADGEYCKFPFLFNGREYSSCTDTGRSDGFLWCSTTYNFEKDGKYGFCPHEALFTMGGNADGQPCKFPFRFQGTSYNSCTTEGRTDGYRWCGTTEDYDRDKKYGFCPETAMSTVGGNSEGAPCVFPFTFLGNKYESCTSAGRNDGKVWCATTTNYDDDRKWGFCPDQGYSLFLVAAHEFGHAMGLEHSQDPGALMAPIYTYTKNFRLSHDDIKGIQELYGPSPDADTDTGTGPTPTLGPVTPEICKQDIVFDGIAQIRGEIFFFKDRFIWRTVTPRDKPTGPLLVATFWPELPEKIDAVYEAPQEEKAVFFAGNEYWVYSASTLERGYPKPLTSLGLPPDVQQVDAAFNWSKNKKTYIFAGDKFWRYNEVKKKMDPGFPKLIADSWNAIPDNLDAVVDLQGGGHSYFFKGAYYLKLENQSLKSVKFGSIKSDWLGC

MMP2 activity (gelatin zymography) (MMP2 [2]) | MMP2 activity in fibroblast cells (MMP2 [3]) | Substance | proliferation of human primary dermal fibroblast cells [1] | phosphorylation of ERK (NIH3T3 cells) | phosphorylation of P38 (NIH3T3 cells) | phagocytosis (melanosome transfer) (HaCaT keratinocytes) | collagen degradation induced by MMP2 (MMP2 [4])
directly inhibited | inhibited | NH2-Cys-Thr-Lys-Ile-Tyr-Asp-Pro-Val-Cys-COOH (H-CTKIYDPVC-OH; cysteine pairing not given here) [CG-Renuin] | increased depending on the treatment amount | increased | increased | inhibited | inhibited the induction of collagen degradation
directly inhibited | inhibited | NH2-Cys-Pro-Arg-His-Phe-Asn-Pro-Val-Cys-COOH (H-CPRHFNPVC-OH; cysteine pairing not given here) [CG-Noverin] | increased depending on the treatment amount | increased | increased | inhibited | inhibited the induction of collagen degradation
